According to patent US5204352A, “Compounds exhibiting anti-parasitic activity and a method for their use” (The United States of America as represented by the …, priority 1987, dated 1993):

What was measured:
Trypanosoma rhodesiense [1] = details: previously known bis-amidine and bis-guanylhydrazones; cited from earlier work
in vivo = test: in vivo; design: species or system mice; details: mouse, sc
Protocol: The preferred mode of administration of these compounds is subcutaneously. With subcutaneous administration, however, many of the compounds show lethal toxicity at very high dosage amounts. Thus, it is also possible to administer these compounds peritoneally. Compounds which are subcutaneously active are generally peritoneally active at higher doses. Further, none of the compounds administered peritoneally have shown lethal toxicity at dosages up to 400 mg/kg.
(§1) The compounds of the present invention were evaluated biologically in vivo with groups of 5 mice at various dose levels. Unless otherwise indicated, the data are for subcutaneous administration. Dose levels marked with an asterisk are for peritoneal administration in a HEC+T medium. In addition, Table 2 present results of peritoneal administration with substituted quanylhydrazones. The biological evaluation was done according to a standard protocol based on the method described by Rane et al., Amer. J. Trop. Med Hyg. 25:395 (1976).

Trypanosoma rhodesiense [2] = test: In vivo trypanocidal activity in infected mice (protocol based on Rane et al.); design: Activity at dosage, value in parentheses (increase in survival): unit not given here
Protocol: as §1, with “(1976). […]” for “(1976).”

[3] = 106* mg/kg, peritoneal in HEC+T medium (Table I)
[4] = 212* mg/kg, peritoneal in HEC+T medium (Table I)
[5] = 424* mg/kg, peritoneal in HEC+T medium (Table I)

SMILES: N=C(N)c1ccc(N=NNc2ccc(C(=N)N)cc2)cc1 [berenil]
- Trypanocidal activity (Trypanosoma rhodesiense [1]): show trypanocidal activity

SMILES: N=C(N)c1ccc(OCCCCCOc2ccc(C(=N)N)cc2)cc1 [pentamidine]
- Trypanocidal activity (Trypanosoma rhodesiense [1]): show trypanocidal activity

SMILES: N=C(N)c1cccc(NC(=O)Nc2cccc(C(=N)N)c2)c1 [aminocarbilide]
- Trypanocidal activity (Trypanosoma rhodesiense [1]): show trypanocidal activity

SMILES: Cc1ccc2n(c1)cc(-c1ccc(C=NNC3=NCCCN3)cc1)[n+]2C [2-(3,4,5,6-tetrahydropyrimidyI)hydrazone of 1,6-dimethyl-2-(4'-formylphenyl)imidazo[1,2-a]-pyridinium bromide]
- MTD (in vivo): ~100 mg/kg

SMILES: N=C(N)c1ccc(-c2cc3ccc(C(=N)N)cc3[nH]2)cc1 [DAPI, 2-phenylindole-5-4'-bis-carboxamidine]
- Trypanocidal activity (Trypanosoma rhodesiense [1]): show trypanocidal activity

SMILES: CC(=NNC(=N)N)c1cccc(C(C)=NNC(=N)N)c1 [m-diacetylbenzene-bis-guanylhydrazone]
- Trypanocidal activity (Trypanosoma rhodesiense [1]): show trypanocidal activity

SMILES: C[n+]1c(-c2ccc(C=NNC(=N)N)cc2)cn2ccsc21 [BK21909]
- Trypanocidal activity, cures (Trypanosoma rhodesiense [2]; 13.3 mg/kg, subcutaneous): 5/5

SMILES: C[n+]1c(C=Cc2ccc(C=NNC(=N)N)cc2)cn2ccccc21 [BL09462]
- Increase in survival (Trypanosoma rhodesiense [2]; 0.1 mg/kg, subcutaneous): 5.2 days
- Trypanocidal activity, cures (Trypanosoma rhodesiense [2]; 0.1 mg/kg, subcutaneous): 6/10
- Trypanocidal activity, cures (Trypanosoma rhodesiense [2]; 0.2 mg/kg, subcutaneous): 5/5
- Trypanocidal activity, cures (Trypanosoma rhodesiense [2]; 0.8 mg/kg, subcutaneous): 10/10

SMILES: C[n+]1c(-c2ccc(C=CC=NNC(=N)N)cc2)cn2ccccc21 [BL07815]
- Trypanocidal activity, cures (Trypanosoma rhodesiense [2]; 1.6 mg/kg, subcutaneous): 0/10
- Trypanocidal activity, cures (Trypanosoma rhodesiense [2]; 3.3 mg/kg, subcutaneous): 5/5
- Trypanocidal activity, cures (Trypanosoma rhodesiense [2]; 6.6 mg/kg, subcutaneous): 5/5
- Trypanocidal activity, cures (Trypanosoma rhodesiense [2]; 13 mg/kg, subcutaneous): 10/10
- Trypanocidal activity, cures (Trypanosoma rhodesiense [2]; 26 mg/kg, subcutaneous): 15/15
- Trypanocidal activity, cures (Trypanosoma rhodesiense [2]; 53 mg/kg, subcutaneous): 5/5
- Trypanocidal activity, cures (Trypanosoma rhodesiense [2]; 106 mg/kg, subcutaneous): 10/10

SMILES: CCN=C(NCC)NN=Cc1ccc(OCc2n(C)cc[n+]2C)cc1 [BL28038]
- Trypanocidal activity, cures (Trypanosoma rhodesiense [2]; 13 mg/kg, subcutaneous): 3/5

SMILES: C[n+]1c(-c2ccc(C=CC=NNC3=NCCCN3)cc2)cn2ccccc21 [BL07824]
- Trypanocidal activity, cures (Trypanosoma rhodesiense [2]; 3.3 mg/kg, subcutaneous): 5/5
- Trypanocidal activity, cures (Trypanosoma rhodesiense [2]; 6.6 mg/kg, subcutaneous): 5/5
- Trypanocidal activity, cures (Trypanosoma rhodesiense [2]; 13 mg/kg, subcutaneous): 5/5

SMILES: C=CC[n+]1c(-c2ccc(N(CC)C(C)=O)cc2)cn2ccccc21 [BK02566]
- Increase in survival (Trypanosoma rhodesiense [2]; [3]): 2.8 days
- Trypanocidal activity, cures (Trypanosoma rhodesiense [2]; [3]): 1/10
- Increase in survival (Trypanosoma rhodesiense [2]; [4]): 4.7 days
- Trypanocidal activity, cures (Trypanosoma rhodesiense [2]; [4]): 1/5
- Increase in survival (Trypanosoma rhodesiense [2]; [5]): 9.9 days
- Trypanocidal activity, cures (Trypanosoma rhodesiense [2]; [5]): 5/10

SMILES: CC(=O)Nc1ccc(-c2cn3ccccc3[n+]2C)cc1 [BJ83315]
- Increase in survival (Trypanosoma rhodesiense [2]; 106 mg/kg, subcutaneous): 3.7 days
- Increase in survival (Trypanosoma rhodesiense [2]; 212 mg/kg, subcutaneous): 6.4 days
- Trypanocidal activity, cures (Trypanosoma rhodesiense [2]; 212 mg/kg, subcutaneous): 3/5
- Increase in survival (Trypanosoma rhodesiense [2]; 424 mg/kg, subcutaneous): 2.9 days
- Trypanocidal activity, cures (Trypanosoma rhodesiense [2]; 424 mg/kg, subcutaneous): 9/10

SMILES: C[n+]1c(-c2ccc(C=NNC(=N)N)cc2)cn2ccccc21 [BJ90749]
- Increase in survival (Trypanosoma rhodesiense [2]; 0.21 mg/kg, subcutaneous): 2.5 days
- Trypanocidal activity, cures (Trypanosoma rhodesiense [2]; 0.21 mg/kg, subcutaneous): 1/5
- Increase in survival (Trypanosoma rhodesiense [2]; 0.42 mg/kg, subcutaneous): 5.4 days
- Trypanocidal activity, cures (Trypanosoma rhodesiense [2]; 0.42 mg/kg, subcutaneous): 2/10
- Increase in survival (Trypanosoma rhodesiense [2]; 0.83 mg/kg, subcutaneous): 6.2 days
- Trypanocidal activity, cures (Trypanosoma rhodesiense [2]; 0.83 mg/kg, subcutaneous): 8/10
- Trypanocidal activity, cures (Trypanosoma rhodesiense [2]; 1.6 mg/kg, subcutaneous): 10/10
- Trypanocidal activity, cures (Trypanosoma rhodesiense [2]; 3.3 mg/kg, subcutaneous): 5/5
- Trypanocidal activity, cures (Trypanosoma rhodesiense [2]; 6.6 mg/kg, subcutaneous): 5/5
- Activity at dosage, value in parentheses (increase in survival) (Trypanosoma rhodesiense [2]; 13 mg/kg, peritoneal (Table 2)): 4.0
- Trypanocidal activity, cures (Trypanosoma rhodesiense [2]; 13.3 mg/kg, subcutaneous): 10/10
